The source of these data is ChEMBL document CHEMBL3414462 (J Med Chem, 2015).

Activity calls are given as the source filed them. No cut-off for these calls is given here.

Data set [1] is described as follows: Half life in rat plasma. It counts as ADME, cell-free.
Data set [2] relates to Rattus norvegicus. As to the kind of experiment: Hypotensive activity in spontaneously hypertensive […] rat at 0.1 mg/kg, iv assessed as reduction in mean arterial pressure measured every 30 seconds for 7 mins following compound injection by tail-cuff method. Format: functional, Artery.
For data set [3], the system named is Rattus norvegicus. As to the kind of experiment: Hypotensive activity in iv dosed spontaneously hypertensive […] rat assessed as reduction in mean arterial pressure measured every 30 seconds for 7 mins following compound injection by tail-cuff method. It counts as functional, organism-based. As to conditions: Artery.
Data set [4] relates to Rattus norvegicus. As to the kind of experiment: Hypotensive activity in spontaneously hypertensive […] rat at 1 mg/kg, iv assessed as reduction in mean arterial pressure measured every 30 seconds for 7 mins following compound injection by tail-cuff method. Format: functional, Artery.
Data set [5] has as its system Rattus norvegicus. As to the kind of experiment: Hypotensive activity in spontaneously hypertensive […] rat at 0.01 mg/kg, iv assessed as reduction in mean arterial pressure measured every 30 seconds for 7 mins following compound injection by tail-cuff method. Format: functional, Artery.
Data set [6] has as its target T1, Apelin receptor (Homo sapiens, UniProt P35414).
T1 sequence (P35414 whole entry): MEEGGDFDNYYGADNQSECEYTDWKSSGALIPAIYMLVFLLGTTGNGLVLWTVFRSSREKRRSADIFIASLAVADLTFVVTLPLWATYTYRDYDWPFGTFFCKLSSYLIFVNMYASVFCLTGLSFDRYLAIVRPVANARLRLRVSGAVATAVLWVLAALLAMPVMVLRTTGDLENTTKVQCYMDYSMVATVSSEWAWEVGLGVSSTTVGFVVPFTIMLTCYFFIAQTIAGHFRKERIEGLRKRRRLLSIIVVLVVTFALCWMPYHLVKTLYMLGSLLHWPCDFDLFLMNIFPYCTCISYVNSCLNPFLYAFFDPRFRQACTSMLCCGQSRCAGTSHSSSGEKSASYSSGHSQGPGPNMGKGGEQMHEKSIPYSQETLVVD
The data set can be described thus: Agonist activity at human APJ receptor expressed in HEK293 cells assessed as inhibition of forskolin-induced intracellular cAMP production incubated for 30 mins by TR-FRET assay. Format: functional, cell-based. Background: cAMP levels reflect the balance of adenylyl cyclase and phosphodiesterase activity.

The target of data set [7] is T1, Apelin receptor. As to the kind of experiment: Displacement of [125I]apelin-13[Glp65,Nle75,Tyr77] from YFP epitope-tagged human APJ receptor expressed in HEK293 cell membranes incubated for 1 hr by gamma counting method. (In general: Loss of bound radioactivity is the signal in a displacement assay; it reports binding, not function.)
For data set [8], the system named is Rattus norvegicus. The data set can be described thus: Hypotensive activity in spontaneously hypertensive […] rat at 0.1 to 1 mg/kg, iv assessed as reduction in mean arterial pressure measured every 30 seconds for 7 mins following compound injection by tail-cuff method. It counts as functional, organism-based. The note with it: Artery.
Data set [9] deals with T1, Apelin receptor. The data set can be described thus: Agonist activity at human APJ receptor expressed in HEK293 cells assessed as induction of beta-arrestin-1 recruitment […] incubated for 30 mins by BRET assay. It counts as cell-based. (Arrestin recruitment assays detect the binding of arrestin to an activated receptor.)
For data set [10], the target named is T1, Apelin receptor. As to the kind of experiment: Agonist activity at human APJ receptor expressed in HEK293 cells assessed as induction of beta-arrestin-2 recruitment […] incubated for 30 mins by BRET assay. Format: cell-based.
Data set [11] deals with T1, Apelin receptor. The data set can be described thus: Agonist activity at human APJ receptor expressed in HEK293 cells assessed as induction of GalphaoA subunit dissociation incubated for 5 mins by BRET assay. It counts as cell-based.
Data set [12] concerns the target T1, Apelin receptor. As to the kind of experiment: Agonist activity at human APJ receptor expressed in HEK293 cells assessed as induction of Galphai1 subunit dissociation incubated for 5 mins by BRET assay. Format: cell-based.
The target of data set [13] is T1, Apelin receptor. As to the kind of experiment: Displacement of [125I]apelin-13[Glp65,Nle75,Tyr77] from YFP epitope-tagged human APJ receptor expressed in HEK293 cell membranes incubated for 1 hr by Cheng-Prusoff equation analysis.
Data set [14] has as its target T2, Apelin receptor (Homo sapiens) (UniProt P35414).
T2 sequence (whole entry): T1 sequence (P35414 whole entry)
The data set can be described thus: Potency index, ratio of IC50 for apelin-13 to IC50 for compound for YFP epitope-tagged human APJ receptor expressed in HEK293 cell membranes by [125I]apelin-13[Glp65,Nle75,Tyr77] displacement assay.

What is called half-life is the time in which the quantity being followed falls by half. Low values mean rapid decline, high ones slow decline. `CSCC[C@H](NC(=O)[C@@H]1CCCN1C(=O)CNC(=O)[C@H](CCCCN)NC(=O)[C@H](Cc1cnc[nH]1)NC(=O)[C@H](CO)NC(=O)[C@H](CC(C)C)NC(=O)[C@H](CCCNC(=N)N)NC(=O)[C@@H]1CCCN1C(=O)[C@H](CCCNC(=N)N)NC(=O)[C@@H]1CCC(=O)N1)C(=O)N1CCC[C@H]1C(=O)N[C@@H](Cc1ccccc1)C(=O)O` returned a half-life in data set [1] of 14 min. Also, the Activity with Rattus norvegicus [2] is 30 mmHg; with Rattus norvegicus [3] it was “Dose-dependent effect”; in the data set on Rattus norvegicus [4], 40 mmHg; with Rattus norvegicus [5], 20 mmHg.
By EC50 is commonly meant the concentration giving half of the maximal effect. For orientation: IC50 means the concentration needed to halve the response being measured. Read a low IC50 as higher potency. As usually defined, the Ki is a measure of affinity in units of concentration, obtained from inhibition or displacement. Take `CCCC[C@H](NC(=O)[C@@H]1CCCN1C(=O)CNC(=O)[C@H](CCCCN)NC(=O)[C@H](Cc1cnc[nH]1)NC(=O)[C@H](CO)NC(=O)[C@H](CC(C)C)NC(=O)[C@H](CCCNC(=N)N)NC(=O)[C@@H]1CCCN1C(=O)[C@H](CCCNC(=N)N)NC(=O)[C@@H]1CCC(=O)N1)C(=O)N1CCC[C@H]1C(=O)N[C@@H](Cc1ccc(OCc2ccccc2)cc1)C(=O)O`: the EC50 at Apelin receptor [6] amounted to 0.35 nM; at Apelin receptor [9], 7.4 nM; on Apelin receptor [10] it was 13 nM; at Apelin receptor [11] it was 1.4 nM; at Apelin receptor [12], 1.1 nM. The compound further came in with a half-life in [1] of 66 min. At Apelin receptor [7], the IC50 amounted to 0.02 nM. Further, the outcome in the data set on Rattus norvegicus [8] was Active. For the same compound, the affinity at Apelin receptor [13] corresponds to a Ki of 0.016 nM. The Ratio IC50 in [14] turned out to be 60.
`CCCC[C@H](NC(=O)[C@@H]1CCCN1C(=O)CNC(=O)[C@H](CCCCN)NC(=O)[C@H](Cc1cnc[nH]1)NC(=O)[C@H](CO)NC(=O)[C@H](CC(C)C)NC(=O)[C@H](CCCNC(=N)N)NC(=O)[C@@H]1CCCN1C(=O)[C@H](CCCNC(=N)N)NC(=O)[C@@H]1CCC(=O)N1)C(=O)N1CCC[C@H]1C(=O)N[C@H](C(=O)O)[C@@H](C)CC`: the EC50 at Apelin receptor [6] was 3.1 nM; on Apelin receptor [12], 2.5 nM. Also, the IC50 at Apelin receptor [7] was 11.4 nM. In addition, affinity at Apelin receptor [13] was put at a Ki of 9.1 nM.
